Laboratory results published in ChEMBL document CHEMBL1130201, “Antimalarial activity of molecules interfering with Plasmodium falciparum phospholipid metabolism. Structure-activity relationship analysis” (J Med Chem, 1997).

What follows are compounds tested on Plasmodium falciparum (assay: Inhibitory activity against Plasmodium falciparum). Details: not given.
Assay type: functional, organism-based

**Q.** For CETRIMIDE, which IC50 is on record?
**A.** 0.9 µM

Same assay, conditions: Plasmodium falciparum

**Q.** With CCCCCCCCCCCCNC(CC)CO (stereo unspecified) as the compound, how does the IC50 read?
**A.** 0.61 µM

**Q.** Which IC50 does the source give for OCCN1CCCC1 here?
**A.** 420 µM

**Q.** Which IC50 does the source give for CCCCCCCCCCCCCCCCCC[N+](C)(C)C [TRIMETHYL-OCTADECYL-AMMONIUM CHLORIDE] here?
**A.** 2.1 µM

**Q.** Which IC50 does the source give for CCCCC[N+](C)(C)CCO here?
**A.** 81.3 µM

**Q.** For C[N+](C)(CCO)Cc1ccccc1, which IC50 is on record?
**A.** 112 µM

**Q.** How did the IC50 turn out when OCCN1CCN(CCO)CC1 was run?
**A.** 1200 µM

**Q.** CCCCCCCCCCCCN(C)CCO was tested. Which IC50 did it give?
**A.** 1.3 µM

**Q.** Which IC50 does the source give for CC(N)CO (stereo unspecified) here?
**A.** 300 µM

**Q.** With C[N+](C)(CCO)CC(=O)c1ccc(-c2ccc(C(=O)C[N+](C)(C)CCO)cc2)cc1 as the compound, how does the IC50 read?
**A.** 4 µM

**Q.** For C[N+]1(CCO)CCOCC1, which IC50 is on record?
**A.** 4830 µM

**Q.** For CCC(N)(CO)CO, which IC50 is on record?
**A.** 600 µM

**Q.** CCCCCCCCC[N+](C)(C)C was tested. Which IC50 did it give?
**A.** 1.6 µM

**Q.** CCCCCCCCCCCC[N+](C)(C)CCCCCCCCCCCC was tested. Which IC50 did it give?
**A.** 0.7 µM

**Q.** For C[N+]1(CCCCCCCCCC[N+]2(C)CCCC2)CCCC1, which IC50 is on record?
**A.** 0.15 µM

**Q.** With CCCCCCCCCC[N+](C)(C)C as the compound, how does the IC50 read?
**A.** 0.7 µM

**Q.** CC(Cc1ccccc1)[N+](C)(C)CCO (stereo unspecified) was tested. Which IC50 did it give?
**A.** 250 µM

**Q.** For CCCCCCCCCCCCNCCO, which IC50 is on record?
**A.** 0.51 µM

**Q.** For C[N+](C)(CCO)CCc1ccccc1, which IC50 is on record?
**A.** 110 µM

**Q.** OC1CCNC1 (stereo unspecified) was tested. Which IC50 did it give?
**A.** > 1000 µM

**Q.** How did the IC50 turn out when CCCCCCCCCCCC[N+](C)(CCO)CCCCCCCCCCCC was run?
**A.** 0.84 µM

**Q.** Which IC50 does the source give for C[N+](C)(C)CCCCCCCCCC[N+](C)(C)C [DECAMETHONIUM BROMIDE] here?
**A.** 1.7 µM

**Q.** C[N+](C)(CCO)C1CCCCC1 was tested. Which IC50 did it give?
**A.** 120 µM

**Q.** For CC(O)CN (stereo unspecified), which IC50 is on record?
**A.** 800 µM

**Q.** C[N+]1(CCCCC[N+]2(C)CCCC2)CCCC1 was tested. Which IC50 did it give?
**A.** 650 µM

**Q.** C[N+](C)(C)CC(=O)O [BETAINE] was tested. Which IC50 did it give?
**A.** > 8000 µM

**Q.** With CCCCCCCCCCCCCCCCCC[N+](CC)(CC)CCO as the compound, how does the IC50 read?
**A.** 0.62 µM

**Q.** With CCCCCCCCCCCC[N+](C)(C)C as the compound, how does the IC50 read?
**A.** 0.5 µM

**Q.** CCCCCCCCCCCC[N+](CC)(CC)CCO was tested. Which IC50 did it give?
**A.** 0.34 µM

**Q.** Which IC50 does the source give for OCCN1CC1 here?
**A.** 50 µM

**Q.** CCCCCCCCCCCC[N+](C)(C)CCC was tested. Which IC50 did it give?
**A.** 0.15 µM

**Q.** With CCCCCCCCCCCC[N+](CC)(CC)CC as the compound, how does the IC50 read?
**A.** 0.064 µM

**Q.** How did the IC50 turn out when C[Se+](C)CCO was run?
**A.** 420 µM

**Q.** CCCCCCCCCCCC[N+](C)(C)CC was tested. Which IC50 did it give?
**A.** 0.11 µM

**Q.** CCCCCCCCCC[N+](C)(C)CCO was tested. Which IC50 did it give?
**A.** 0.97 µM

**Q.** C[N+](C)(C)C1CCCCC1O (stereo unspecified) was tested. Which IC50 did it give?
**A.** 700 µM

**Q.** With CCN(CC)CCO [DIETHYLAMINOETHANOL] as the compound, how does the IC50 read?
**A.** 400 µM

**Q.** For CCCCCCCCCCCC[N+](CCC)(CCC)CCC, which IC50 is on record?
**A.** 0.033 µM

**Q.** How did the IC50 turn out when CN(C)CCOC(=O)COc1ccc(Cl)cc1 [MECLOFENOXATE] was run?
**A.** 500 µM

**Q.** For OCCN1CCCCC1, which IC50 is on record?
**A.** 350 µM

**Q.** With CN(C)CCCCCCN(C)C as the compound, how does the IC50 read?
**A.** 130 µM

**Q.** Which IC50 does the source give for CC[N+](CC)(CCO)CCCCCCCCCC[N+](CC)(CC)CCO here?
**A.** 2 µM

**Q.** For C[N+]1(CCO)CCCC1, which IC50 is on record?
**A.** 230 µM

**Q.** CC[N+](CC)(CCO)CCCCC[N+](CC)(CC)CCO was tested. Which IC50 did it give?
**A.** 1260 µM

**Q.** For C[N+](C)(C)CCOP(=O)([O-])O, which IC50 is on record?
**A.** 1200 µM

**Q.** For OCCNCCO [DIETHANOLAMINE], which IC50 is on record?
**A.** 1100 µM

**Q.** Which IC50 does the source give for NC(CO)CO here?
**A.** 50 µM

**Q.** Which IC50 does the source give for C[N+](C)(C)CCCCCC[N+](C)(C)C [HEXAMETHONIUM BROMIDE] here?
**A.** 700 µM

**Q.** With OCCNCc1ccccc1 as the compound, how does the IC50 read?
**A.** 40 µM

**Q.** With CC(C)(C)CCO as the compound, how does the IC50 read?
**A.** > 2000 µM

**Q.** For CN(C)CCO [DIMETHYLAMINOETHANOL], which IC50 is on record?
**A.** 1300 µM

**Q.** CCCCCCC[N+](C)(C)C was tested. Which IC50 did it give?
**A.** 300 µM

**Q.** How did the IC50 turn out when CCCCCCCCCCCCCC[N+](C)(C)CCO was run?
**A.** 0.6 µM

**Q.** With CCCCCCCCCCCCCCCCCC[N+](C)(C)Cc1ccccc1 as the compound, how does the IC50 read?
**A.** 0.7 µM

**Q.** C[C@H]1O[C@@H](C[N+](C)(C)C)C[C@@H]1O was tested. Which IC50 did it give?
**A.** > 200 µM

**Q.** With C[N+](C)(C)CCCl [CHLORMEQUAT CHLORIDE] as the compound, how does the IC50 read?
**A.** 200 µM

**Q.** For CC[N+](C)(C)CCO, which IC50 is on record?
**A.** > 300 µM

**Q.** For CCCCCCCCCCCC[N+](C)(C)CCO, which IC50 is on record?
**A.** 0.48 µM

**Q.** With NCCS [CYSTEAMINE] as the compound, how does the IC50 read?
**A.** 200 µM

**Q.** How did the IC50 turn out when C[N+](C)(C)CCCCCCCCCCCC[N+](C)(C)C was run?
**A.** 0.09 µM

**Q.** CCCCCCCCCCCC[N+](C)(C)CCBr was tested. Which IC50 did it give?
**A.** 0.21 µM

**Q.** With OC1CCCNC1 (stereo unspecified) as the compound, how does the IC50 read?
**A.** > 1000 µM

**Q.** With CCCCCCCCCCCCCC[N+](C)(C)Cc1ccccc1 [MIRISTALKONIUM CHLORIDE] as the compound, how does the IC50 read?
**A.** 1 µM

**Q.** How did the IC50 turn out when CCCCCCCCCCCC[N+](C)(C)CCCC was run?
**A.** 0.26 µM

**Q.** With CCCCCCCCCCCCNCCOC as the compound, how does the IC50 read?
**A.** 2.1 µM

**Q.** With CCCCCCCCCCCCCC[N+](CC)(CC)CCO as the compound, how does the IC50 read?
**A.** 0.55 µM

**Q.** With CCCCCCCCCCC[N+](C)(C)C as the compound, how does the IC50 read?
**A.** 0.5 µM

**Q.** With CC(=O)OCC[N+](C)(C)C [ACETYLCHOLINE CHLORIDE] as the compound, how does the IC50 read?
**A.** > 8000 µM

**Q.** With CCC(N)CO (stereo unspecified) as the compound, how does the IC50 read?
**A.** 80 µM

**Q.** NCCCO was tested. Which IC50 did it give?
**A.** 800 µM

**Q.** NCCCCCN was tested. Which IC50 did it give?
**A.** 2000 µM

**Q.** CCCCCCCCCCCC[N+](CC)(CCO)CCCCCCCCCCCC was tested. Which IC50 did it give?
**A.** 1.5 µM

**Q.** For CCCCCCCCCCCCCCCCCC[N+](C)(C)CCO, which IC50 is on record?
**A.** 1.3 µM

**Q.** Which IC50 does the source give for CC[N+](CC)(CC)CC [TETRYLAMMONIUM BROMIDE] here?
**A.** 700 µM

**Q.** How did the IC50 turn out when NCCCCCO was run?
**A.** > 2000 µM

**Q.** Which IC50 does the source give for CC(C)(N)CO [DEANOL] here?
**A.** 900 µM
